These results are taken from patent US8471041B2 (priority 2010, dated 2013).

Series [1] can be described thus: physchem. The following applies: water.
Series [2] can be described thus: physchem. The following applies: organic solvent or mixture.

≈ marks a conversion by molar mass, not a printed value.

Broadly, the solubility is the dissolved amount per volume that the medium holds. On to `O=C(CBr)N1CC([N+](=O)[O-])([N+](=O)[O-])C1` [ABDNAZ, N-(bromoacetyl)-3,3-dinitroazetidine], for which the figures for the solubility in series [1] and in series [2] were 0.3 to 1.3 mg/mL (≈ 1.12 to 4.85 mM) and approximately 30 mg/mL (≈ 112 mM), respectively.
